Experimental data taken from patent publication US20250367302A1, “SMALL MOLECULE DRUG-OLIGONUCLEOTIDE CONJUGATE AND USE THEREOF” (SHANGHAI JIAO TONG UNIVERSITY, priority 2022, published 2025).

How the values were obtained:
[1] = system: psoriasis-like model mice (5% imiquimod cream); assay: Imiquimod psoriasis-like mouse model, smear administration in carbomer gel; type: in vivo; conditions: nanomicelles in carbomer gel applied to skin lesions, after 7 d of treatment
Experimental: (§1) The psoriasis model on the back and ears of 6-8 weeks old mice (C57BL/6, Suzhou Xishan Biotechnology Co., Ltd.) was established with 5% imiquimod cream. After removing the hair on the back of the mice, 60 mg of 5% imiquimod cream was applied to the back and ears of each mouse for 6 consecutive days. […] CsA3-ASONFKBIZ-m nanomicelles were mixed with carbomer gel and applied to the skin lesions for treatment. The carbomer gel without CsA3-ASONFKBIZ-m nanomicelles was used as a control group (control) for efficacy testing. On the 7 d of treatment, the thickness of the skin at the back lesions and the thickness of the ears were measured, and the erythema, scaling, skin thickening, and severity of the psoriasis lesions were scored. The results were shown in FIG. 54, FIGS. 55A-55B, and FIGS. 56A-56D.
as §1, with “mice” for “mice (C57BL/6, Suzhou Xishan Biotechnology Co., Ltd.)”, “10TA-ASONFKBIZ-m” for “CsA3-ASONFKBIZ-m”, “The carbomer gel without CsA3-ASONFKBIZ-m nanomicelles was used as a control group (control) for efficacy testing.” left out, “The results were shown in FIG. 54, FIGS. 55A-55B, and FIGS. 56A-56D.” left out

[2] = system: mice with xerophthalmia (0.2% benzalkonium chloride); assay: Benzalkonium chloride xerophthalmia mouse model: sodium fluorescein staining and phenol red cotton thread tear test; type: in vivo, mouse (C57BL/6)
Experimental: The ocular xerophthalmia model was established in 6-8 weeks old mice (C57BL/6, Suzhou Xishan Biotechnology Co., Ltd.) with 0.2% benzalkonium chloride. 5 μL of 0.2% benzalkonium chloride was dripped into each eye of the mice, once in the morning and once in the evening every day, for two consecutive weeks. After successful modeling, the hospital-prepared CsA eye drops (400 µM CsA, referred to as hospital-prepared CsA eye drops or CsA eye drops, provided by the Eye, Ear, Nose and Throat Hospital Affiliated to Fudan University School of Medicine, Shanghai) and CsA-ASONFKBIZ-m (400 µM CsA) were used for eye drops treatment, 5 μL per eye, once in the morning and once in the evening. Sodium fluorescein staining and phenol red cotton thread tear secretion test were conducted on days 0, 7, and 14 of treatment to evaluate the therapeutic effect.
(§2) The ocular xerophthalmia model was established in 6-8 weeks old mice (C57BL/6, Suzhou Xishan Biotechnology Co., Ltd.) with 0.2% benzalkonium chloride. 5 μL of 0.2% benzalkonium chloride was dripped into each eye of the mice, once in the morning and once in the evening every day, for two consecutive weeks. After successful modeling, the hospital-prepared CsA eye drops (400 μM CsA, provided by the Eye, Ear, Nose and Throat Hospital Affiliated to Fudan University School of Medicine, Shanghai) and 2CsA-ASONFKBIZ-m (400 µM CsA) were used for eye drops treatment, 5 μL per eye, once in the morning and once in the evening. Sodium fluorescein staining and phenol red cotton thread tear secretion test were conducted on days 0, 7, and 14 of treatment to evaluate the therapeutic effect.
as §2, with “µM” for “μM”, “provided” for “provided by”, “3CsA-ASONFKBIZ-m nanomicelles (133 µM ASO concentration, 400” for “2CsA-ASONFKBIZ-m (400”
as §2, with “CsA3-ASONFKBIZ-m nanomicelles” for “2CsA-ASONFKBIZ-m”, “0” for “0, 7,”
The ocular xerophthalmia model was established in 6-8 weeks old mice (C57BL/6, Suzhou Xishan Biotechnology Co., Ltd.) using 0.2% benzalkonium chloride. 5 μL of 0.2% benzalkonium chloride was dripped into each eye of the mouse, once in the morning and once in the evening every day for two weeks. After successful modeling, the hospital-prepared CsA eye drops (400 µM CsA, provided by the Eye, Ear, Nose and Throat Hospital Affiliated to Fudan University School of Medicine, Shanghai) and CsA-siRNANFKBIZ-m (400 µM CsA), 2CsA-siRNANFKBIZ-m nanomicelles (400 µM CsA), 3CsA-siRNANFKBIZ-m nanomicelles (400 µM CsA) were used for eye drops treatment, 5 μL per eye, once in the morning and once in the evening. […]

[3] = eye drops 5 μL per eye twice daily, 400 μM CsA (10RAP: 400 μM rapamycin), day 14
[4] = xerophthalmia mice, baseline of the treatment group

CsA3-ASONFKBIZ-m: CsA trimer on tripropargyl linker at 3′ end of ASO targeting mouse NFKBIZ (SEQ ID NO: 8) (AATACTGGTACATTGACGCC; 3'-NHS ASO with tripropargyl linker carrying three cyclosporin A, chemistry not given here, further chemistry not given here)
erythema and scaling of the skin lesions versus control group [1]: significantly reduced
skin thickness of the lesions (and ears) versus control group [1]: reduced
phenol red cotton thread infiltration length (tear secretion) after 14 d of treatment [2, 3]: about 3.5 mm
sodium fluorescein staining eye score after 14 d of treatment [2, 3]: about 6 points
phenol red cotton thread infiltration length (tear secretion), day 0 (before treatment) [2, 4]: 1.5 mm
sodium fluorescein staining eye score, day 0 (before treatment) [2, 4]: 10 points
